Assay results reported in patent US8084484B2, “Vanilloid receptor ligands, pharmaceutical compositions containing them, process for making them, and use thereof for treating pain and other conditions” (Gruenenthal GmbH, priority 2007, dated 2011).

How the values were obtained:
[1] = target: T1, vanilloid receptor (VR1), human VR1 gene (Homo sapiens, UniProt Q8NER1); experiment: FLIPR Ca2+ influx assay on CHO K1 cells transfected with the VR1 gene, capsaicin stimulus (Pharmacological method II); assay type: cell-based; settings: for Ki / Ki (human) Capsaicin: human, Ki by Cheng-Prusoff, ne = no effect, no response observed; for inhibition at 0.1 µM: CHO-K1, compound 0.1 μM, read-out: Capsaicin: inhibition (in percent) @ 0.1 μM; for inhibition at 0.1 µM / inhibition at 5 µM: species column unclear (taken as human); for inhibition at 5 µM: CHO-K1, compound 5 μM, read-out: Capsaicin: inhibition (in percent) @ 5 μM
T1 construct: expressed in transfected cells; host or cells: CHO K1 cells (ECACC), stably transfected
T1 sequence (Q8NER1 whole entry): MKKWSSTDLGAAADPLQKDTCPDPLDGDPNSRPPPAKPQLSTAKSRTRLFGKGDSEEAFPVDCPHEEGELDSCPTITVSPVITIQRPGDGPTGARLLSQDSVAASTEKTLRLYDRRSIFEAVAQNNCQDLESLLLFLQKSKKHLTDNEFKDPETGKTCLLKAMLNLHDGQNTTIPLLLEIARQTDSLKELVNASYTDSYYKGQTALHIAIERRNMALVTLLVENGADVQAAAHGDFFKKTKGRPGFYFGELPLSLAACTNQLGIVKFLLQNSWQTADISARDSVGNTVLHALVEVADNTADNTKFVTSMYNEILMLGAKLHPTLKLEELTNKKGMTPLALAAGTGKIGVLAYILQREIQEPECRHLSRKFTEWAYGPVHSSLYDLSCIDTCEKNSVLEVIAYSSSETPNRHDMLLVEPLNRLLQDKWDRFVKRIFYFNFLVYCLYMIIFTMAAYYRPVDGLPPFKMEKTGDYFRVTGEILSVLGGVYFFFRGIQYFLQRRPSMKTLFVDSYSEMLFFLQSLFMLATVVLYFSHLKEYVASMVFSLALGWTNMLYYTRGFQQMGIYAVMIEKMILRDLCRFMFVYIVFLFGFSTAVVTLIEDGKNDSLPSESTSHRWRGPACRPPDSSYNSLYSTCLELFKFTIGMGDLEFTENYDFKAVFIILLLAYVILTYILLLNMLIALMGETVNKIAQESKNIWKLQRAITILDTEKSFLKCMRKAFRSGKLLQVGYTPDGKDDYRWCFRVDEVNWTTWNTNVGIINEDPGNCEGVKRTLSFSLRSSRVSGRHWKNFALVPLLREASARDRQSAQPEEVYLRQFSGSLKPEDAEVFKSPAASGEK
Protocol: In addition, compounds according to the invention of the general formulae I, Ia, Ib, Ic, and Id, may be preferred which in the FLIPR assay with CHO K1 cells, which have been transfected with the human VR1 gene, in a concentration of less than 2000 nM, preferably of less than 1000 nM, particularly preferably of less than 300 nM, very particularly preferably of less than 100 nM, still more preferably of less than 75 nM, further preferably of less than 50 nM and most preferably of less than 10 nM, bring about a 50 percent displacement of capsaicin, which is present in a concentration of 100 nM. In this FLIPR assay, the influx of Ca^2+ is quantified with the assistance of a Ca^2+-sensitive dye (type Fluo-4, Molecular Probes Europe BV, Leiden, Netherlands) in a Fluorescent Imaging Plate Reader (FLIPR, Molecular Devices, Sunnyvale, USA) as described below.
II. Functional Investigations on Vanilloid Receptor (VR1)
The agonistic or antagonistic action of the substances to be investigated on the vanilloid receptor (VR1) may also be determined with the following assay. According to this assay, the influx of Ca^2+ through the channel is quantified with the assistance of a Ca^2+-sensitive dye (type Fluo-4, Molecular Probes Europe BV, Leiden, Netherlands) in a Fluorescent Imaging Plate Reader (FLIPR, Molecular Devices, Sunnyvale, USA).
Chinese hamster ovary cells (CHO K1 cells, European Collection of Cell Cultures (ECACC), Great Britain) are stably transfected with the VR1 gene. For functional investigations, these cells are plated out onto poly-D-lysine-coated, black 96-hole plates with a clear base (BD Biosciences, Heidelberg, Germany) at a density of 25,000 cells/hole. The cells are incubated overnight at 37° C. and 5% CO2 in a culture medium (Ham's Nutrient Mixture F12, 10 vol. % FCS (foetal calf serum), 18 μg/mL L-proline). On the following day, the cells are incubated with Fluo-4 (Fluo-4 2 μM, Pluronic F127 0.01 vol. %, Molecular Probes in HBSS (Hank's buffered saline solution), Gibco Invitrogen GmbH, Karlsruhe, Germany) for 30 minutes at 37° C. The plates are then washed 3 times with HBSS buffer and, after a further 15 minutes' incubation at room temperature, used for Ca^2+ measurement in the FLIPR. Ca^2+-dependent fluorescence is here measured before and after the addition of the substances to be investigated (wavelength λex=488 nm, λem=540 nm).
Quantification proceeds by measuring the highest fluorescence intensity (FC, fluorescence counts) over time.
The FLIPR protocol consists of 2 additions of substance. The substances to be tested (10 μM) are firstly pipetted onto the cells and Ca^2+ influx is compared with the control (capsaicin 10 μM) (% activation relative to the Ca^2+ signal after addition of 10 μM of capsaicin). After 5 minutes' incubation, 100 nM of capsaicin are added and the influx of Ca^2+ is likewise determined.
The percentage inhibition in comparison with the maximum achievable inhibition with 10 μM capsaicin is calculated.
On the basis of the percentage displacement by different concentrations of the compounds to be tested of the general formula I, IC50 inhibition concentrations which bring about 50% displacement of capsaicin were calculated. Ki values for the test substances were obtained by conversion using the Cheng-Prusoff equation (Cheng, Prusoff; Biochem. Pharmacol. 22, 3099-3108, 1973).

[2] = target: VR1/TRPV1 receptor (Homo sapiens, UniProt Q8NER1); experiment: Inhibition of human VR1/TRPV1 following pH-stimulus; assay type: cell-based; settings: for IC50 (Human) following pH-stimulus: ne = no effect, no response observed; for inhibition at 1 µM: compound 1 μM, read-out: IC50 (Human) following pH-stimulus: inhibition (in percent) @ 1 μM; for inhibition at 5 µM: read-out: IC50 (Human) following pH-stimulus: inhibition (in percent) @ 5 μM; for inhibition at 10 µM: compound 10 μM, read-out: IC50 (Human) following pH-stimulus: inhibition (in percent) @ 10 μM
Chain of VR1/TRPV1 receptor (Q8NER1 whole entry): as above

CC(C(=O)NCc1ccc(C(C)(C)C)cc1)c1ccc2ocnc2c1 (stereo not shown) [Example 1, 2-benzooxazol-5-yl-N-(4-tert.-butyl-benzyl)-propionamide] was tested, and the Ki [1] was 579 nM and the “IC50 (Human) following pH-stimulus” value [2] was “Ne”.

Compound CC1CCN(c2nc(C(F)(F)F)ccc2CNC(=O)C(C)c2ccc3nc(NC(=O)OC(C)(C)C)sc3c2)CC1 (stereo not shown) [Example 40, tert.-butyl 6-(1-((2-(4-methylpiperidin-1-yl)-6-(trifluoromethyl)pyridin-3-yl)methylamino)-1-oxopropan-2-yl)benzo[d]thiazol-2-ylcarbamate] has an inhibition at 0.1 µM [1] of 0%, an inhibition at 5 µM [1] of 34% and an inhibition at 1 µM [2] of 0%. For the same compound, the inhibition at 5 µM ([2]; compound 5 μM) was 21% and the inhibition at 10 µM [2] was 37%.

With CC1CCN(c2nc(C(C)(C)C)ccc2CNC(=O)C(C)c2ccc3nc(N)sc3c2)CC1 (stereo not shown) [Example 56, 2-(2-aminobenzo[d]thiazol-6-yl)-N-((6-tert-butyl-2-(4-methylpiperidin-1-yl)pyridin-3-yl)methyl)propanamide] the Ki [1] was 18.7 nM, the inhibition at 5 µM ([2]; compound 5 μM) was 2% and the inhibition at 10 µM [2] was 12%.

CSc1nc2ccc(C(C)C(=O)NCc3ccc(C(C)(C)C)nc3N3CCC(C)CC3)cc2s1 (stereo not shown) [Example 34, N-(6′-tert.-butyl-4-methyl-3,4,5,6-tetrahydro-2H-[1,2′]bipyridinyl-3′-ylmethyl)-2-(2-methylsulfanyl-benzothiazol-6-yl)-propionamide] was tested, and the inhibition at 5 µM [1] was 38% and the “IC50 (Human) following pH-stimulus” value [2] was “Ne”.

CC1CCN(c2nc(C(F)(F)F)ccc2CNC(=O)C(C)c2ccc3nc(NS(C)(=O)=O)sc3c2)CC1 (stereo not shown) [Example 39, N-((2-(4-methylpiperidin-1-yl)-6-(trifluoromethyl)pyridin-3-yl)methyl)-2-(2-(methylsulfonamido)benzo[d]thiazol-6-yl)propanamide] was tested, and the inhibition at 0.1 µM [1] was 0% and the “IC50 (Human) following pH-stimulus” value [2] was “Ne”.

With CC(C(=O)NCc1ccc(C(C)(C)C)cc1)c1ccc2c(c1)OCCO2 (stereo not shown) [Example 9, N-(4-tert.-butyl-benzyl)-2-(2,3-dihydro-benzo[1,4]dioxin-6-yl)-propionamide] the Ki [1] was 1080 nM and the “IC50 (Human) following pH-stimulus” value [2] was “Ne”.

With CC(C(=O)NCc1ccc(C(C)(C)C)cc1)c1ccc2nccnc2c1 (stereo not shown) [Example 11, N-(4-tert.-butyl-benzyl)-2-quinoxalin-6-yl-propionamide] the “Ki (human) Capsaicin” value [1] was “ne”.

For CC(C(=O)NCc1ccc(C(C)(C)C)cc1)c1ccc2nc(NS(C)(=O)=O)sc2c1 (stereo not shown) [Example 57, N-(4-tert-butylbenzyl)-2-(2-(methylsulfonamid)benzo[d]thiazol-6-yl)propanamide], the Ki [1] was 32.8 nM, the inhibition at 5 µM ([2]; compound 5 μM) was 3% and the inhibition at 10 µM [2] was 32%.

With CC(C(=O)NCc1ccc(C(C)(C)C)cc1)c1ccc2c(c1)OCCN2 (stereo not shown) [Example 20, N-(4-tert.-butylbenzyl)-2-(3,4-dihydro-2H-benzo[b][1,4]oxazin-7-yl)propionamide] the inhibition at 5 µM [1] was 9% and the “IC50 (Human) following pH-stimulus” value [2] was “Ne”.

CC(C(=O)NCc1ccc(C(C)(C)C)cc1)c1ccc2nc(N)sc2c1 (stereo not shown) [Example 51, 2-(2-aminobenzo[d]thiazol-6-yl)-N-(4-tert.-butylbenzyl)propanamide] was tested, and the inhibition at 0.1 µM [1] was 3%, the inhibition at 0.1 µM ([2]; compound 0.1 μM, read-out: IC50 (Human) following pH-stimulus: inhibition (in percent) @ 0.1 μM) was 10% and the “IC50 (Human) following pH-stimulus: inhibition (in percent) @ 5 μM” value ([2]; compound 5 μM, 5 µM) was 27% @ 5. The inhibition at 5 µM ([2]; compound 5 μM) was 39%.

CC(C(=O)NCc1ccc(C(C)(C)C)cc1)c1ccc2[nH]cnc2c1 (stereo not shown) [Example 14, 2-(1H-benzoimidazol-5-yl)-N-(4-tert.-butyl-benzyl)-propionamide] was tested, and the “Ki (human) Capsaicin” value [1] was “ne”.

In the case of CC(C(=O)NCc1ccc(C(C)(C)C)cc1)c1ccc2nc(NC(=O)OC(C)(C)C)sc2c1 (stereo not shown) [Example 50, tert.-butyl 6-(1-(4-tert.-butylbenzylamino)-1-oxopropan-2-yl)benzo[d]thiazol-2-ylcarbamate], the inhibition at 0.1 µM [1] is reported as 0%, the inhibition at 5 µM [1] is reported as 10% and the inhibition at 1 µM [2] is reported as 10%. For the same compound, the inhibition at 5 µM ([2]; compound 5 μM) was 25% and the inhibition at 10 µM [2] was 53%.

CC1CCN(c2nc(C(F)(F)F)ccc2CNC(=O)C(C)c2ccc3nc(N)sc3c2)CC1 (stereo not shown) [Example 52, 2-(2-aminobenzo[d]thiazol-6-yl)-N-((2-(4-methylpiperidin-1-yl)-6-(trifluoromethyl)pyridin-3-yl)methyl)propanamide] was tested, and the inhibition at 0.1 µM [1] was 5% and the “IC50 (Human) following pH-stimulus” value [2] was “Ne”.

With COc1cc(C(C)C(=O)NCc2ccc(C(C)(C)C)cc2)cc2ncoc12 (stereo not shown) [Example 7, N-(4-tert.-butyl-benzyl)-2-(7-methoxy-benzooxazolyl-5-yl)-propionamide] the Ki [1] was 2170 nM and the “IC50 (Human) following pH-stimulus” value [2] was “Ne”.

For CC1CCN(c2nc(C(F)(F)F)ccc2CNC(=O)C(C)c2ccc3nc(N)sc3c2)CC1 (stereo not shown) [Example 38, 2-(2-aminobenzo[d]thiazol-6-yl)-N-((2-(4-methylpiperidin-1-yl)-6-(trifluoromethyl)pyridin-3-yl)methyl)propanamide], the Ki [1] was 28.4 nM and the “IC50 (Human) following pH-stimulus” value [2] was “Ne”.

With CC(=O)Nc1nc2ccc(C(C)C(=O)NCc3ccc(C(F)(F)F)nc3N3CCC(C)CC3)cc2s1 (stereo not shown) [Example 41, 2-(2-acetamidobenzo[d]thiazol-6-yl)-N-((2-(4-methylpiperidin-1-yl)-6-(trifluoromethyl)pyridin-3-yl)methyl)propanamide] the inhibition at 0.1 µM [1] was 5% and the “IC50 (Human) following pH-stimulus” value [2] was “Ne”.

With CC1CCN(c2nc(C(C)(C)C)ccc2CNC(=O)C(C)c2ccc3nc(NC(=O)OC(C)(C)C)sc3c2)CC1 (stereo not shown) [Example 55, tert-butyl 6-(1-((6-tert-butyl-2-(4-methylpiperidin-1-yl)pyridin-3-yl)methylamino)-1-oxopropan-2-yl)benzo[d]thiazol-2-ylcarbamate] the inhibition at 5 µM [1] was 12%, the inhibition at 1 µM [2] was 5% and the inhibition at 5 µM ([2]; compound 5 μM) was 27%.
